Experimental data published in patent publication US20150307938A1, “METHOD TO IDENTIFY A NOVEL CLASS OF IMMUNOLOGIC ADJUVANTS” (Lancell, L.L.C., priority 2011, published 2015).

Test system: skin
Assay: Affymetrix microarray of skin, DBP-4 hr and analogs vs. untreated; gene selection by log-2 fold change, Wilcoxon, Kendall tau (Tables 8, 9)
Type: in vivo, mouse
[1] = Kendall tau, expression vs. output

## CCCCOC(=O)c1ccccc1C(=O)OCCCC [DBP, dibutylphthalate]
[1]
  Oxr1 NM_001130166_at Kendall: Yes
  Pgam2 NM_018870_at Kendall: No
  Pigyl NM_001082532_at Kendall: Yes
  Pparg NM_001127330_at Kendall: Yes
  Ppih NM_001110129_at Kendall: Yes
  Prg4 NM_021400_at Kendall: No
  Retnla NM_020509_at Kendall: No
  Rffl NM_001007465_at Kendall: Yes
  Rn18s NR_003278_at Kendall: No
  Rpl3l NM_025425_at Kendall: No
  Slc39a14 NM_001135151_at Kendall: Yes
  Sln NM_025540_at Kendall: No
  Smpx NM_025357_at Kendall: No
  Tnfrsf9 NM_001077508_at Kendall: Yes
  Tnfrsf9 NM_001077509_at Kendall: Yes
  Tnni1 NM_021467_at Kendall: No
  Trdn NM_029726_at Kendall: No
  Trf NM_133977_at Kendall: No
  Trp63 NM_001127259_at Kendall: Yes
  Trp63 NM_001127260_at Kendall: Yes
  Trp63 NM_001127262_at Kendall: Yes
  Trp63 NM_001127264_at Kendall: Yes
  Ttn NM_028004_at Kendall: No
  Wbp1 NM_001083922_at Kendall: Yes
  Wbp1 NM_001083923_at Kendall: Yes
  Wfdc2 NM_026323_at Kendall: No
  Zfp68 NM_001044747_at Kendall: Yes
  Zfp187 NM_001013786_at Kendall: Yes
  Zfp518b NM_001081144_at Kendall: Yes
  Zfp943 NM_001025373_at Kendall: Yes
Map3k8 NM_007746_at, DBP-4 hr vs. untreated
  Wilcoxon: No
Map3k8 NM_007746_at, Kendall tau coefficient
  Kendall: No
NM_007403_at, DBP-4 hr
  DBP Expression: Adam8: 8.84
NM_007464_at, DBP-4 hr
  DBP Expression: Birc3: 10.36
NM_007570_at, DBP-4 hr
  DBP Expression: Btg2: 10.63
NM_007679_at, DBP-4 hr
  DBP Expression: Cebpd: 10.17
NM_007706_at, DBP-4 hr
  DBP Expression: Socs2: 8.92
NM_007707_at, DBP-4 hr
  DBP Expression: Socs3: 9.48
NM_007746_at, DBP-4 hr
  DBP Expression: Map3k8: 8.72
NM_007780_at, DBP-4 hr
  DBP Expression: Csf2rb: 7.73
NM_007791_at, DBP-4 hr
  DBP Expression: Csrp1: 9.89
NM_007913_at, DBP-4 hr
  DBP Expression: Egr1: 12.15
NM_007974_at, DBP-4 hr
  DBP Expression: F2rl1: 9.38
NM_008009_at, DBP-4 hr
  DBP Expression: Fgfbp1: 11.47
NM_008125_at, DBP-4 hr
  DBP Expression: Gjb2: 8.85
NM_008152_at, DBP-4 hr
  DBP Expression: Gpr65: 5.48
NM_008176_at, DBP-4 hr
  DBP Expression: Cxcl1: 10.24
NM_008194_at, DBP-4 hr
  DBP Expression: Gyk: 9.63
NM_008230_at, DBP-4 hr
  DBP Expression: Hdc: 8.51
NM_008348_at, DBP-4 hr
  DBP Expression: Il10ra: 6.97
NM_008361_at, DBP-4 hr
  DBP Expression: Il1b: 7.67
NM_008372_at, DBP-4 hr
  DBP Expression: Il7r: 7.70
NM_008416_at, DBP-4 hr
  DBP Expression: Junb: 9.71
NM_008476_at, DBP-4 hr
  DBP Expression: Krt6a: 10.76
NM_008630_at, DBP-4 hr
  DBP Expression: Mt2: 13.23
NM_008871_at, DBP-4 hr
  DBP Expression: Serpine1: 8.32
NM_009140_at, DBP-4 hr
  DBP Expression: Cxcl2: 8.67
NM_009264_at, DBP-4 hr
  DBP Expression: Sprr1a: 10.84
NM_009285_at, DBP-4 hr
  DBP Expression: Stc1: 7.56
NM_009396_at, DBP-4 hr
  DBP Expression: Tnfaip2: 8.85
NM_009397_at, DBP-4 hr
  DBP Expression: Tnfaip3: 7.22
NM_009398_at, DBP-4 hr
  DBP Expression: Tnfaip6: 8.79
NM_009421_at, DBP-4 hr
  DBP Expression: Traf1: 6.04
NM_009834_at, DBP-4 hr
  DBP Expression: Ccrn4l: 10.05
NM_009851_at, DBP-4 hr
  DBP Expression: Cd44: 9.82
NM_009890_at, DBP-4 hr
  DBP Expression: Ch25h: 7.68
NM_009895_at, DBP-4 hr
  DBP Expression: Cish: 9.37
NM_010120_at, DBP-4 hr
  DBP Expression: Eif1a: 9.39
NM_010139_at, DBP-4 hr
  DBP Expression: Epha2: 8.60
NM_010220_at, DBP-4 hr
  DBP Expression: Fkbp5: 8.58
NM_010235_at, DBP-4 hr
  DBP Expression: Fosl1: 6.85
NM_010415_at, DBP-4 hr
  DBP Expression: Hbegf: 8.85
NM_010444_at, DBP-4 hr
  DBP Expression: Nr4a1: 10.34
NM_010493_at, DBP-4 hr
  DBP Expression: Icam1: 10.54
NM_010499_at, DBP-4 hr
  DBP Expression: Ier2: 10.73
NM_010516_at, DBP-4 hr
  DBP Expression: Cyr61: 9.37
NM_010591_at, DBP-4 hr
  DBP Expression: Jun: 9.74
NM_011019_at, DBP-4 hr
  DBP Expression: Osmr: 7.49
NM_011113_at, DBP-4 hr
  DBP Expression: Plaur: 7.68
NM_011227_at, DBP-4 hr
  DBP Expression: Rab20: 6.73
NM_011331_at, DBP-4 hr
  DBP Expression: Ccl12: 8.47
NM_011333_at, DBP-4 hr
  DBP Expression: Ccl2: 9.45
NM_011404_at, DBP-4 hr
  DBP Expression: Slc7a5: 10.00
NM_011498_at, DBP-4 hr
  DBP Expression: Bhlhe40: 10.32
NM_011574_at, DBP-4 hr
  DBP Expression: Cirh1a: 9.51
NM_011756_at, DBP-4 hr
  DBP Expression: Zfp36: 10.39
NM_013498_at, DBP-4 hr
  DBP Expression: Crem: 6.91
NM_013542_at, DBP-4 hr
  DBP Expression: Gzmb: 5.74
NM_013602_at, DBP-4 hr
  DBP Expression: Mt1: 12.73
